Holding throughout (format): in vivo
Holding throughout (conditions): active ingredient amount 31 g/ha, 14th day after application

Assay [1] deals with barnyardgrass (Echinochloa crus-qalli L.). Put plainly: Test Example 1: foliar treatment, growth inhibition rate on 14th day. In short, it runs like this:
(§1)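 Using a small sprayer, formulated compound in water (0.1 vol % surfactant, 1,000 L/ha) was applied to seedlings grown from seed in upland soil. Fourteen days on, growth state was observed and expressed as percent inhibition from 0 to 100.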

Assay [2] has as its system corn (Zea mays L.). The description is as above. In short, it runs like this: as §1
Assay [3] concerns crabgrass (Digitaria sanquinalis L.). The description is as above. In short, it runs like this: as §1
Assay [4] concerns green foxtail (Setaria viridis L.). Described as above. In short, it runs like this:
(§2)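 Inhibition was rated visually 14 days after treatment on a 0–100% scale, where 100 is complete kill. Compounds, formulated as wettable powders or emulsifiable concentrates at set active-ingredient amounts, were diluted to 1,000 L/ha with 0.1 vol% spreader. The dilutions were sprayed post-emergence onto soybean (primary leaf), rice (0.2–2.7 leaf), wild oat (0.4–1.2) and green foxtail (0.5–3.2).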

For assay [5], the system named is italian ryegrass (Lolium multiflorum Lam.). The assay is described as above. In short, it runs like this:
as §1

In assay [6] the test system is redroot pigweed (Amaranthus retroflexus L.). The description is as above. The method, boiled down:
as §1

The test system of assay [7] is rice (Oryza sativa L.). The assay is described as above. In short, it runs like this:
as §2

The subject of assay [8] is soybean (Glycine max Merr.). The assay is described as above. The method, boiled down: as §2
For assay [9], the system named is wheat (Triticum aestivum L.). Described as above. The method, boiled down: as §1
For assay [10], the system named is wild oat (Avena fatua L.). Described as above. The method, boiled down:
as §2

The subject of assay [11] is barnyardgrass (Echinochloa crus-qalli L.). In words: Test Example 2: soil application on the day after sowing, growth inhibition rate on 14th day. The method, boiled down:
(§3)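 Growth inhibition (%) judged by eye at day 14, scale 0 = as untreated to 100 = complete kill. Compounds formulated as wettable powders or emulsifiable concentrates, diluted in 1,000 L water per ha and sprayed onto pot soil one day post-sowing at set active-ingredient rates.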

The subject of assay [12] is corn (Zea mays L.). Described as above. In short, it runs like this:
as §3

Assay [13] has as its system crabgrass (Digitaris sanquinalis L.). The description is as above. The method, boiled down:
as §3

Assay [14] concerns green foxtail (Setaria viridis L.). The assay is described as above. The method, boiled down:
as §3

Assay [15] concerns prickly sida (Sida spinosa L.). The assay is described as above. The method, boiled down: as §3
The test system of assay [16] is redroot pigweed (Amaranthus retroflexus L.). The description is as above. In short, it runs like this: as §3
Assay [17] deals with rice (Oryza sativa L.). The assay is described as above. In short, it runs like this:
as §3

For assay [18], the system named is soybean (Glycine max Merr.). The assay is described as above. In short, it runs like this:
as §3

Assay [19] has as its system velvetleaf (Abutilon theophrasti MEDIC.). Described as above. The method, boiled down:
as §3

Assay [20] deals with wheat (Triticum aestivum L.). Described as above. In short, it runs like this: as §3

The structures appear in SMILES notation.

Regarding `Cn1ncc(O)c(-c2cc(Oc3ncc(C(F)(F)F)cc3Cl)ccc2OC(F)(F)F)c1=O` [1-162], the “Growth inhibition rate (%) Barnyardgrass” value in assay [1] and in [11] was 100% each time. In addition, the “Growth inhibition rate (%) Corn” value with corn (Zea mays L.) [2] is 98%; with corn (Zea mays L.) [12] it was 40%. The “Growth inhibition rate (%) Crabgrass” value in assay [3] and in [13] was 100% throughout. Also, the “Growth inhibition rate (%) Green foxtail” value in assay [4] and in [14] was 100% throughout. Moreover, the “Growth inhibition rate (%) Italian ryegrass” value in [5] is given as 99%. The “Growth inhibition rate (%) Redroot pigweed” value in [6] and in assay [16] was 0% throughout. Further, the “Growth inhibition rate (%) Rice” value in the assay with rice (Oryza sativa L.) [7] was determined as 93%; in the assay with rice (Oryza sativa L.) [17] it was 95%. In addition, the “Growth inhibition rate (%) Soybean” value in assay [8] and in assay [18] was 0% each time. In addition, the “Growth inhibition rate (%) Wheat” value in [9] stood at 99%; in assay [20], 0%. The “Growth inhibition rate (%) Wild oat” value in [10] came out at 100%. Besides, in [15], the “Growth inhibition rate (%) Prickly sida” value is on record as 0%. In addition, in [19], the “Growth inhibition rate (%) Velvetleaf” value is listed as 0%.

`Cc1nn(C)c(=O)c(-c2cc(Oc3ncc(C(F)(F)F)cc3Cl)ccc2OC(F)(F)F)c1O` [1-163]: the “Growth inhibition rate (%) Barnyardgrass” value in [1] and in [11] was 100% each time. Besides, the “Growth inhibition rate (%) Corn” value in the assay with corn (Zea mays L.) [2] is recorded as 100%; in the assay on corn (Zea mays L.) [12], 80%. Besides, the “Growth inhibition rate (%) Crabgrass” value in assay [3] and in assay [13] was 100% each time. Further, the “Growth inhibition rate (%) Green foxtail” value in assay [4] and in assay [14] was 100% each time. For the same compound, the “Growth inhibition rate (%) Italian ryegrass” value in [5] worked out at 99%. For the same compound, the “Growth inhibition rate (%) Redroot pigweed” value in assay [6] and in assay [16] was 0% in each case. Further, the “Growth inhibition rate (%) Rice” value with rice (Oryza sativa L.) [7] is reported as 75%; in the assay on rice (Oryza sativa L.) [17] it was 40%. In addition, the “Growth inhibition rate (%) Soybean” value in assay [8] and in [18] was 0% throughout. For the same compound, the “Growth inhibition rate (%) Wheat” value in [9] came to 60%; in assay [20], 0%. Besides, in assay [10], the “Growth inhibition rate (%) Wild oat” value amounted to 100%. Also, in assay [15], the “Growth inhibition rate (%) Prickly sida” value was 0%. For the same compound, the “Growth inhibition rate (%) Velvetleaf” value in assay [19] amounted to 0%.

Regarding `CCn1nc(C)c(OC(C)=O)c(-c2cc(Oc3ncc(C(F)(F)F)cc3Cl)ccc2C)c1=O` [1-165], the results for the “Growth inhibition rate (%) Barnyardgrass” value in [1] and in [11] were 100% and 99%, respectively. Further, the “Growth inhibition rate (%) Corn” value in the assay with corn (Zea mays L.) [2] is given as 100%; with corn (Zea mays L.) [12], 0%. For the same compound, the “Growth inhibition rate (%) Crabgrass” value in assay [3] and in [13] was 100% each time. Moreover, the “Growth inhibition rate (%) Green foxtail” value in assay [4] is on record as 100%; in [14], 95%. In [5], the “Growth inhibition rate (%) Italian ryegrass” value amounted to 100%. In addition, the “Growth inhibition rate (%) Redroot pigweed” value in [6] and in assay [16] was 0% throughout. Moreover, the “Growth inhibition rate (%) Rice” value worked out at 83% in the assay with rice (Oryza sativa L.) [7] and 0% in the assay with rice (Oryza sativa L.) [17]. The “Growth inhibition rate (%) Soybean” value in [8] and in [18] was 0% each time. In addition, the “Growth inhibition rate (%) Wheat” value is reported as 95% in assay [9] and 0% in assay [20]. For the same compound, the “Growth inhibition rate (%) Wild oat” value in assay [10] was 100%. For the same compound, the “Growth inhibition rate (%) Prickly sida” value in assay [15] is 0%. For the same compound, in [19], the “Growth inhibition rate (%) Velvetleaf” value turned out to be 0%.

For `Cc1c(Oc2ncc(C(F)(F)F)cc2Cl)cccc1-c1c(O)cnn(CC2CC2)c1=O` [1-166], the “Growth inhibition rate (%) Barnyardgrass” value in [1] turned out to be 95%; in assay [11], 80%. The “Growth inhibition rate (%) Corn” value in the assay with corn (Zea mays L.) [2] is reported as 98%; with corn (Zea mays L.) [12], 0%. For the same compound, the “Growth inhibition rate (%) Crabgrass” value in [3] was 99%; in assay [13], 95%. Moreover, the “Growth inhibition rate (%) Green foxtail” value is 100% in assay [4] and 80% in assay [14]. The “Growth inhibition rate (%) Italian ryegrass” value in assay [5] came out at 30%. For the same compound, the “Growth inhibition rate (%) Redroot pigweed” value in assay [6] and in [16] was 0% throughout. In addition, the “Growth inhibition rate (%) Rice” value in the assay on rice (Oryza sativa L.) [7] is 10%; with rice (Oryza sativa L.) [17], 0%. The figures for the “Growth inhibition rate (%) Soybean” value in assay [8] and in assay [18] were 15% and 0%, respectively. Also, the entries for the “Growth inhibition rate (%) Wheat” value in [9] and in assay [20] were 10% and 0%, respectively. Besides, in [10], the “Growth inhibition rate (%) Wild oat” value was 93%. For the same compound, the “Growth inhibition rate (%) Prickly sida” value in assay [15] was determined as 0%. The “Growth inhibition rate (%) Velvetleaf” value in [19] came out at 0%.

As to `C=CCn1ncc(O)c(-c2cc(Oc3ncc(C(F)(F)F)cc3Cl)ccc2C)c1=O` [1-167], the “Growth inhibition rate (%) Barnyardgrass” value in assay [1] is on record as 98%; in assay [11], 85%. The results for the “Growth inhibition rate (%) Corn” value with corn (Zea mays L.) [2] and in the assay on corn (Zea mays L.) [12] were 100% and 0%, respectively. The “Growth inhibition rate (%) Crabgrass” value in assay [3] is on record as 99%; in assay [13] it was 100%. The results for the “Growth inhibition rate (%) Green foxtail” value in assay [4] and in [14] were 100% and 95%, respectively. Further, the “Growth inhibition rate (%) Italian ryegrass” value in [5] was determined as 93%. The “Growth inhibition rate (%) Redroot pigweed” value in [6] and in assay [16] was 0% throughout. Also, the “Growth inhibition rate (%) Rice” value is on record as 35% with rice (Oryza sativa L.) [7] and 0% in the assay with rice (Oryza sativa L.) [17]. The “Growth inhibition rate (%) Soybean” value came to 10% in assay [8] and 0% in assay [18]. For the same compound, the “Growth inhibition rate (%) Wheat” value in assay [9] stood at 40%; in [20] it was 0%. Moreover, in assay [10], the “Growth inhibition rate (%) Wild oat” value was determined as 98%. Also, the “Growth inhibition rate (%) Prickly sida” value in [15] amounted to 0%. For the same compound, the “Growth inhibition rate (%) Velvetleaf” value in assay [19] is listed as 0%.

`CC(=O)Oc1cnn(CC2CC2)c(=O)c1-c1cccc(Oc2ncc(C(F)(F)F)cc2Cl)c1C` [1-170]: the entries for the “Growth inhibition rate (%) Barnyardgrass” value in [1] and in [11] were 95% and 75%, respectively. For the same compound, the “Growth inhibition rate (%) Corn” value amounted to 99% in the assay with corn (Zea mays L.) [2] and 0% in the assay on corn (Zea mays L.) [12]. For the same compound, the “Growth inhibition rate (%) Crabgrass” value in [3] amounted to 99%; in assay [13], 93%. The “Growth inhibition rate (%) Green foxtail” value in assay [4] and in [14] was 98% throughout. Further, the “Growth inhibition rate (%) Italian ryegrass” value in assay [5] came out at 30%. Besides, the entries for the “Growth inhibition rate (%) Redroot pigweed” value in assay [6] and in assay [16] were 10% and 0%, respectively. The “Growth inhibition rate (%) Rice” value worked out at 40% in the assay with rice (Oryza sativa L.) [7] and 0% in the assay with rice (Oryza sativa L.) [17]. Besides, the “Growth inhibition rate (%) Soybean” value in [8] and in assay [18] was 0% in each case. Further, the “Growth inhibition rate (%) Wheat” value in assay [9] and in assay [20] was 0% in each case. For the same compound, in assay [10], the “Growth inhibition rate (%) Wild oat” value came to 40%. The “Growth inhibition rate (%) Prickly sida” value in [15] turned out to be 0%. The “Growth inhibition rate (%) Velvetleaf” value in assay [19] worked out at 0%.

With `CC(=O)Oc1cnn(C)c(=O)c1-c1cc(Oc2ncc(C(F)(F)F)cc2Cl)ccc1C` [1-171], the “Growth inhibition rate (%) Barnyardgrass” value in [1] and in assay [11] was 100% in each case. Moreover, the “Growth inhibition rate (%) Corn” value in the assay with corn (Zea mays L.) [2] was 100%; in the assay on corn (Zea mays L.) [12] it was 0%. Further, the “Growth inhibition rate (%) Crabgrass” value in assay [3] and in assay [13] was 100% in each case. Further, the “Growth inhibition rate (%) Green foxtail” value in [4] and in [14] was 100% each time. In addition, in assay [5], the “Growth inhibition rate (%) Italian ryegrass” value was determined as 100%. In addition, the “Growth inhibition rate (%) Redroot pigweed” value in assay [6] and in assay [16] was 0% throughout. Besides, the “Growth inhibition rate (%) Rice” value was determined as 85% with rice (Oryza sativa L.) [7] and 0% in the assay with rice (Oryza sativa L.) [17]. Besides, the “Growth inhibition rate (%) Soybean” value in assay [8] and in assay [18] was 0% throughout. The entries for the “Growth inhibition rate (%) Wheat” value in assay [9] and in [20] were 83% and 0%, respectively. Besides, the “Growth inhibition rate (%) Wild oat” value in assay [10] came to 100%. Moreover, the “Growth inhibition rate (%) Prickly sida” value in [15] is 0%. The “Growth inhibition rate (%) Velvetleaf” value in assay [19] was determined as 0%.

The values are drawn from US10870638B2, “Pyridazinone compound or its salt, and herbicide containing it” (ISHIHARA SANGYO KAISHA, LTD., priority 2016, dated 2020).
